Laboratory results published in patent publication US20130142831A1, “COMPOUNDS FOR INFLAMMATION AND IMMUNE-RELATED USES” (Synta Pharmaceuticals Corp., priority 2004, published 2013).

System: IL-2 production
Assay: Inhibition of IL-2 production in PHA-activated Jurkat cells
Type: cell-based
Settings: Homo sapiens, PHA 2.5 μg/mL, 20 hours, bins given in nM
Description: Jurkat cells were placed in a 96 well plate (0.5 million cells per well in 1% FBS medium) then test compounds of this invention were added at different concentrations. After 10 minutes, the cells were activated with PHA (final concentration 2.5 μg/mL) and incubated for 20 hours at 37° C. under CO2. The final volume was 200 μL. Following incubation, the cells were centrifuged and the supernatants collected and stored at −70° C. prior to assaying for IL-2 production. A commercial kit (IL-2 Eli-pair, Diaclone Research, Besancon, France) was used to detect production of IL-2, from which dose response curves were obtained. The IC50 value was calculated as the concentration at which. 50% of maximum IL-2 production after stimulation was inhibited versus a non-stimulation control.

Row | Structure (SMILES) | IC50 [nM]
1 | O=C(Nc1ccc(-c2c(C(F)(F)F)cc3n2CCCC3)cc1)c1cccc(F)c1F [Compound 8, 2,3-Difluoro-N-[4-(2-trifluoromethyl-5,6,7,8-tetrahydroindolizin-3-yl)-phenyl]-benzamide] | < 100
2 | CSc1nc2ccccc2n1-c1ccc(NC(=O)c2cccc(F)c2F)cc1 [Compound 11, 2,3-Difluoro-N-[4-(2-methylsulfanyl-benzoimidazol-1-yl)-phenyl]-benzamide] | < 100
3 | Fc1cccc(C(=S)Nc2ccc(-n3c(C(F)(F)F)nc4ccccc43)cc2)c1F [Compound 12, 2,3-Difluoro-N-[4-(2-trifluoromethyl-benzoimidazol-1-yl)-phenyl]-thiobenzamide] | < 100
4 | O=C(Nc1ccc(-n2c(C(F)(F)F)nc3ccccc32)cc1)c1cccc(Cl)c1Cl [Compound 13, 2,3-Dichloro-N-[4-(2-trifluoromethyl-benzoimidazol-1-yl)-phenyl]-benzamide] | < 100
5 | O=C(Nc1ccc(-n2c(C(F)(F)F)nc3ccccc32)cc1)c1cccc(Cl)c1F [Compound 15] | 100 to 500
6 | Nc1cc(F)c(F)c(C(=O)Nc2ccc(-n3c(C(F)(F)F)nc4ccccc43)cc2)c1F [Compound 16, 2,3,6-Trifluoro-5-amino-N-[4-(2-trifluoromethyl-benzoimidazol-1-yl)-phenyl]-benzamide] | 100 to 500
7 | Cc1cc(NC(=O)c2cccc(F)c2F)ccc1-n1c(C(F)(F)F)nc2ccccc21 [Compound 17, 2,3-Difluoro-N-[3-methyl-4-(2-trifluoromethyl-benzoimidazol-1-yl)-phenyl]-benzamide] | 100 to 500
8 | Cc1ccccc1C(=O)Nc1ccc(-c2c(C(F)(F)F)cc3n2CCCC3)cc1 [Compound 18, 2-Methyl-N-[4-(2-trifluoromethyl-5,6,7,8-tetrahydroindolizin-3-yl)-phenyl]-benzamide] | 100 to 500
9 | N#Cc1ccc2nc(C(F)(F)F)n(-c3ccc(NC(=O)c4cccc(F)c4F)cc3)c2c1 [Compound 20, 2,3-Difluoro-N-[4-(2-trifluoromethyl-6-cyano-benzoimidazol-1-yl)-phenyl]-benzamide] | 100 to 500
10 | Nc1cccc2c1nc(C(F)(F)F)n2-c1ccc(NC(=O)c2cccc(F)c2F)cc1 [Compound 21, 2,3-Difluoro-N-[4-(2-trifluoromethyl-4-amino-benzoimidazol-1-yl)-phenyl]-benzamide] | 100 to 500
11 | CC(C)(C)OC(=O)Nc1cc(F)c(F)c(C(=O)Nc2ccc(-n3c(C(F)(F)F)nc4ccccc43)cc2)c1F [Compound 22, N-(3-{N-[4-(2-trifluoromethyl-benzoimidazol-1-yl)-phenyl]-carbamoyl}-2,4,5-trifluoro-phenyl)-carbamic acid t-butyl ester] | 100 to 500
12 | O=C(Nc1ccc(-n2c(Cl)nc3ccccc32)cc1)c1cccc(F)c1F [Compound 23, 2,3-Difluoro-N-[4-(2-chloro-benzoimidazol-1-yl)-phenyl]-benzamide] | 100 to 500
13 | Cc1nnsc1C(=O)Nc1ccc(-c2c(Cl)cc3n2CCCC3)cc1 [Compound 24, 4-Methyl-[1,2,3]thiadiazole-5-carboxylic acid {N-[4-(2-chloro-5,6,7,8-tetrahydroindolizin-3-yl)-phenyl]} amide] | 100 to 500
14 | O=C(Nc1ccc(-n2c(Br)nc3ccccc32)cc1)c1cccc(F)c1F [Compound 28, 2,3-Difluoro-N-[4-(2-bromo-benzoimidazol-1-yl)-phenyl]-benzamide] | 100 to 500
15 | Cc1nnsc1C(=O)Nc1ccc(-n2c(C(F)(F)F)nc3ccccc32)cc1 [Compound 29, 4-Methyl-[1,2,3]thiadiazole-5-carboxylic acid {N-[4-(2-trifluoromethyl-benzoimidazol-1-yl)-phenyl]} amide] | 100 to 500
16 | O=C(Nc1ccc(-n2c(C(F)(F)F)nc3ccccc32)c(C(F)(F)F)c1)c1cccc(F)c1F [Compound 30, 2,3-Difluoro-N-[3-trifluoromethyl-4-(2-trifluoromethyl-benzoimidazol-1-yl)-phenyl]-benzamide] | 100 to 500
17 | CC(C)(C)OC(=O)Nc1ccc(C(=O)Nc2ccc(-n3c(C(F)(F)F)nc4ccccc43)cc2)c(F)c1F [Compound 31, N-(4-{N-[4-(2-trifluoromethyl-benzoimidazol-1-yl)-phenyl]-carbamoyl}-2,3-difluoro-phenyl)-carbamic acid t-butyl ester] | 100 to 500
18 | O=C(Nc1ccc(-n2c(I)nc3ccccc32)cc1)c1cccc(F)c1F [Compound 33, 2,3-Difluoro-N-[4-(2-iodo-benzoimidazol-1-yl)-phenyl]-benzamide] | 100 to 500

Now from value to compound:

Row | IC50 [nM] | Structure (SMILES)
19 | < 100 | COc1ccc2c(c1)nc(C(F)(F)F)n2-c1ccc(NC(=O)c2cc(F)cc(F)c2F)cc1 [Compound 2, 2,3,5-Trifluoro-N-[4-(2-trifluoromethyl-5-methoxy-benzoimidazol-1-yl)-phenyl]-benzamide]
20 | < 100 | COc1ccc2c(c1)nc(C(F)(F)F)n2-c1ccc(NC(=O)c2ccc(F)c(F)c2F)cc1 [Compound 3, 2,3,4-Trifluoro-N-[4-(2-trifluoromethyl-5-methoxy-benzoimidazol-1-yl)-phenyl]-benzamide]
21 | < 100 | COc1ccc2c(c1)nc(C(F)(F)F)n2-c1ccc(NC(=O)c2cccc(F)c2F)cc1 [Compound 4, 2,3-Difluoro-N-[4-(2-trifluoromethyl-5-methoxy-benzoimidazol-1-yl)-phenyl]-benzamide]
22 | < 100 | COc1ccc2c(c1)nc(C(F)(F)F)n2-c1ccc(NC(=O)c2ccncc2C)cc1 [Compound 5, 3-Methyl-N-[4-(2-trifluoromethyl-5-methoxy-benzoimidazol-1-yl)-phenyl]-isonicotinamide]
23 | < 100 | COc1ccc2c(c1)nc(C(F)(F)F)n2-c1ccc(NC(=O)c2ccncc2F)cc1 [Compound 6, 3-Fluoro-N-[4-(2-trifluoromethyl-5-methoxy-benzoimidazol-1-yl)-phenyl]-isonicotinamide]
24 | < 100 | COc1ccc2c(c1)nc(C(F)(F)F)n2-c1ccc(NC(=O)c2cc(F)c(Cl)cc2Cl)cc1 [Compound 7, 2,4-Dichloro-5-fluoro-N-[4-(2-trifluoromethyl-5-methoxy-benzoimidazol-1-yl)-phenyl]-benzamide]
25 | < 100 | COc1ccc2c(c1)nc(C(F)(F)F)n2-c1ccc(NC(=O)c2cccc([N+](=O)[O-])c2)cc1 [Compound 10, 3-Nitro-N-[4-(2-trifluoromethyl-5-methoxy-benzoimidazol-1-yl)-phenyl]-benzamide]
26 | < 100 | COc1ccc2nc(C(F)(F)F)n(-c3ccc(NC(=O)c4cccc(F)c4F)cc3)c2c1 [Compound 14, 2,3-Difluoro-N-[4-(2-trifluoromethyl-6-methoxy-benzoimidazol-1-yl)-phenyl]-benzamide]
27 | 100 to 500 | O=C(Nc1ccc(-n2c(C(F)(F)F)nc3ccccc32)cc1)c1cc(F)ccc1F [Compound 26, 2,5-Difluoro-N-[4-(2-trifluoromethyl-benzoimidazol-1-yl)-phenyl]-benzamide]
28 | 100 to 500 | O=C(Nc1ccc(-n2c(C(F)(F)F)nc3ccccc32)cc1)c1ccncc1F [Compound 27, 3-Fluoro-N-[4-(2-trifluoromethyl-benzoimidazol-1-yl)-phenyl]-isonicotinamide]
29 | 100 to 500 | COc1cc2nc(C(F)(F)F)n(-c3ccc(NC(=O)c4cccc(F)c4F)cc3)c2cc1OC [Compound 32, 2,3-Difluoro-N-[4-(2-trifluoromethyl-5,6-dimethoxy-benzoimidazol-1-yl)-phenyl]-benzamide]
